Experimental data from patent publication US6541503B2, “Substituted oxindole derivatives as protein tyrosine kinase and as protein serine/threonine kinase inhibitors” (SmithKline Beecham Corporation, priority 1997, dated 2003).
Where two headings read alike, the source gives them in different places.

Assays:
[1] = molecular target: Lck (Homo sapiens, UniProt P06239); experiment: Lck peptide phosphorylation assay (Elisa or isotope based); assay type: biochemical
Experimental: The src and Ick proteins were purified to homogeneity from a baculovirus expression system and preactivated before adding to assay mixtures. The maximum activation was achieved by incubating concentrated enzyme (10-30 mM) on ice for 40 min in the presence of 1 mM ATP and 10 mM MgCl2 in 100 mM HEPES, pH 7.5. The activated enzyme was diluted to 2 nM into a 50-mL reaction mixture containing 100 mM HEPES, pH 7.5. 5 mM ATP, 10 mM MgCl2, 2 mM peptide, 0.05 mg/mL BSA, and an inhibitor at varying concentrations and with or without 8 mCi/mL [γ-^33P]ATP dependent upon the method of analysis for the extent of reaction. The controls were reactions in the presence (negative controls) or absence (positive controls) of 50 mM EDTA. Reactions were allowed to proceed for 30 min at room temperature and quenched with addition of EDTA to 50 mM in 220 mL. The extent of reactions was analyzed in one of the two ways: an Elisa-based and a radioactive isotope-based. The quenched samples (200 mL) were transferred to a neutravidin coated plate (Perice) and incubated at room temperature for 40 min to allow biotinylated peptide to bind to neutravidin. The unbound peptide and the rest of the solution was washed away using a plate washer. In the Elisa format, a 200 mL HRP-PY20 anti phosphotyrosine antibody conjugate solution was added. After incubation for about 30 min, the plated was washed to remove unbound antibody-HRP conjugate. An Elisa substrate, K-blue (Neogen), was added and the Elisa reaction quenched with Red-stop (Neogen) after 15 min. The plate was read at A625 in a plate reader. In the isotope-based format, the reactions had been performed in the presence of [γ-^33P]ATP. 200 mL Scintiverce DB was added to each well of the plate with bound biotin-peptide. The plate was sealed and counted in a micro-b-counter (Wallac). IC50 values were obtained by fitting raw data to A625 (cpm)=Vmax*(1−([l]/(IC50+[l])))+b, where b is background.

[2] = test system: RKO colon adenocarcinoma cells; experiment: MTT assay, RKO; assay type: cell-based, human
Experimental: (§1) Compounds are tested for their ability to inhibit cell proliferation and cell viability. The metabolic conversion of 3-(4,5-dimethylthiazol-2-yl)-2,5-diphenyltetrazolium bromide (MTT, Sigma #M2128) to a reduced form is a commonly used measure of cellular viability. Following is the procedure:
(§2) Cells are maintained in 75 cm^2 tissue culture flasks until ready for use. The cells are grown and plated for the assay in Dulbecco's modified Eagle's media (DMEM) containing 10% fetal bovine serum. For example, the following cell lines can be used: a) human foreskin fibroblasts (HFF); b) HT29 (human colon carcinoma cell line); c)MDA-MB-468 (human breast carcinoma cell line); d) RKO (human colon adenocarcinoma cell line); e) SW620 (human colon carcinoma cell line); f) A549 (human lung carcinoma cell line); and g) MIA PACA (human pancreatic carcinoma cell line). Cells are maintained at 37° C. in 10% CO2, 90% humidified air. Cells are plated in 96-well tissue culture plates at the densities listed below. 100 μL of cell suspension is added to each well of the 96-well plate except the top row of the plate which contains no cells and serves as a reference for the spectrophotometer.
(§3) Cells are incubated overnight in DMEM containing 10% fetal bovine serum at 37° C. in 10% CO2, 90% humidified air prior to dosing. […] Compounds with solubilities of less than 30 μM are dosed at the highest soluble concentration. Stock solutions of compounds are made in 100% dimethyl sulfoxide (DMSO). Stock solutions are diluted in DMEM containing 100 μg/ml gentamicin and 0.3 to 0.6% DMSO at the twice the highest concentration to be placed on the cells. If compounds have been dissolved in DMSO the final concentration of DMSO on the cells is kept below 0.3%. Three-fold serial dilutions are performed on each compound to prepare 10 concentrations of the compound for dosing. 100 μl of diluted compound is added to the 100 μl of media currently on the dish. For each concentration of compound, 2-4 replicate wells are prepared.
(§4) Cells are returned to incubator and allowed to proliferate in the presence of compound for 72 h before addition of MTT. MTT is prepared in phosphate buffered saline (Irvine Scientific #9240) at a concentration of 2 mg/ml. 50 μl per well of MTT solution is added to the 200 μl of media to yield a final concentration of 0.4 mg/ml and plates are returned to the incubator for 4 h. After 4 h incubation the media, compound and MTT mixture is aspirated from the plates and 100 μl of 100% DMSO is added to each well in addition to 25 μl of Sorenson's Buffer (0.1M glycine, 0.1M NaCl, pH 10.5). Quantitation of metabolic reduction of MTT in each plate is performed by reading optical density at 570 nm wavelength on a Molecular Devices UVmax microplate reader. Growth inhibition curves and 50% inhibitory concentrations are determined using Microsoft Excel.
HDF are normal diploid fibroblast cells. RKO are colon adenocarcinoma cells and MES/SA are […].

[3] = test system: MDA MB468; experiment: MTT assay, MDA MB468; assay type: cell-based, human
Experimental: as §1, §2, §3, §4

[4] = molecular target: VEGFR2 (Homo sapiens, UniProt P35968); experiment: VEGFR-2 kinase domain peptide phosphorylation Elisa; assay type: biochemical
Experimental: The peptide substrate used in the VEGFR-2 assay was biotin-aminohexyl-[…]-NH2. The kinase domain of the enzyme was purified to homogeneity from a baculovirus expression system. The enzyme was preactivated on ice for 15 min in the presence of 100 μM ATP and 20 mM MgCl2, and stored at −80° C. until needed for assay. The activated enzyme was diluted to 0.4 nM into a 60 μl reaction containing 100 mM HEPES, pH 7.5, 5 μM ATP, 10 mM MgCl2, 5 μM peptide, 0.1 mM DTT, 0.05 mg/ml BSA, and an inhibitor at varying concentrations. The controls were reactions in the presence (negative controls) or absence (positive controls) of 50 mM EDTA. Reactions were incubated for 30 min at room temperature, and then quenched by the addition of EDTA to 60 mM in 210 μl. The quenched samples (190 μl) were transferred to a neutravidin-coated plate (Pierce) and incubated at room temperature for 40 min to allow biotinylated peptide to bind to the neutravidin. The unbound components of the reaction were removed by washing with a plate washer, then 200 μl HRP-PY20 anti-phosphotyrosine antibody conjugate was added to each well. After incubation for 40 min, the plate was washed to remove any unbound antibody. A HRP substrate, K-blue (Neogen) was added and the reaction was quenched with Red Stop (Neogen) after 20 min. The absorbance of the wells was read at A650 in a plate reader. IC50 values were obtained by fitting raw data to A650=Vmax*(1−[l]/IC50+[l])))+b, where b is background.

[5] = Homo sapiens, 72 h, read-out: MTT RKO IC50
[6] = Homo sapiens, MDA-MB-468, 72 h; read-out: MTT MDA MB468 IC50
[7] = Homo sapiens, 72 h; read-out: MTT RKO IC50

Sequence of Lck (P06239 whole entry, species assumed): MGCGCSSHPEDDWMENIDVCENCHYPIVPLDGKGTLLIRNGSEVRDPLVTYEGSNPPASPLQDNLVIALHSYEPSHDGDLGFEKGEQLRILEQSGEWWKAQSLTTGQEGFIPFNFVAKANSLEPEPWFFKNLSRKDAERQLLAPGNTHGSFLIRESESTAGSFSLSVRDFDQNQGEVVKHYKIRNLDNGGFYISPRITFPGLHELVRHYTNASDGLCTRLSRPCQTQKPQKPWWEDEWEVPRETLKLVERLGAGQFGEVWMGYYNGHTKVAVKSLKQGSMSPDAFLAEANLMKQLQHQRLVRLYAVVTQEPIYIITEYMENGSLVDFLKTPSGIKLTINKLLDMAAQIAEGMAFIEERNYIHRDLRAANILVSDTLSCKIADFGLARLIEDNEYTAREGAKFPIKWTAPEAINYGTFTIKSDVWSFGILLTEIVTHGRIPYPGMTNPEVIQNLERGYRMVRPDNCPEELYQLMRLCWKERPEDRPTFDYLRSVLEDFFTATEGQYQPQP
Sequence of VEGFR2 (P35968 834-1162 limits assumed, species assumed): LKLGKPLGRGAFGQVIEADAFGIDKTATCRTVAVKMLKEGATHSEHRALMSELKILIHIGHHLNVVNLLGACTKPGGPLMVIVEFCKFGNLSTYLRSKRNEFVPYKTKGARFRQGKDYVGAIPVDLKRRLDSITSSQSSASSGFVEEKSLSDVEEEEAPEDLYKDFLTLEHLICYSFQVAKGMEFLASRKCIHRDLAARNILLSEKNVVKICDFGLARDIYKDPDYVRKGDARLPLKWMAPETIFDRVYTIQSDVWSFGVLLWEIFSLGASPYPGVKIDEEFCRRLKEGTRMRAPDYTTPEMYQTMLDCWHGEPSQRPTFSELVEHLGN

Row | SMILES | IC50 [1] [nM] | IC50 [2, 5] [nM] | IC50 [3, 6] [nM] | IC50 [2, 7] [nM] | IC50 [4] [nM] | IC50 ([3]; Homo sapiens, MDA-MB-468, 72 h, read-out: MTT MDA MB468 IC50) [nM]
1 | CNS(=O)(=O)Cc1ccc(NN=C2C(=O)Nc3ccc4ncccc4c32)cc1 [Example 68, N-Methyl-C-{4-[N′-(2-oxo-2,3-dihydro-pyrrolo[3,2-f]quinolin-1-ylidene)-hydrazino]-phenyl}-methanesulfonamide] | > 100 | > 5000 | – | – | – | –
2 | CC(C)(CO)CNS(=O)(=O)c1ccc(NC=C2C(=O)Nc3ccc4ncsc4c32)cc1 [Example 77, N-(3-Hydroxy-2,2-dimethyl-propyl)-4-[(7-oxo-6,7-dihydro-1-thia-3,6-diaza-as-indacen-8-ylidenemethyl)-amino]-benzenesulfonamide] | – | – | > 5000 | 1100 to 5000 | – | –
3 | O=C1Nc2ccc3ncsc3c2C1=CNc1ccc(S(=O)(=O)Nc2ccccn2)cc1 [Example 72, 4-[(7-Oxo-6,7-dihydro-1-thia-3,6-diaza-as-indacen-8-ylidenemethyl)-amino]-N-pyridin-2-yl-benzenesulfonamide] | – | 1100 to 5000 | – | – | 51 to 100 | > 5000
4 | CS(=O)(=O)Cc1ccc(NC=C2C(=O)Nc3ccc4ncsc4c32)cc1 [Example 76, 8-(4-Methylsulfonylmethyl-phenylamino-methylene)-6,8-dihydro-1-thia-3,6-diaza-as-indacen-7-one] | > 100 | – | > 5000 | > 5000 | > 100 | –
5 | CNS(=O)(=O)Cc1ccc(NN=C2C(=O)Nc3cc(C)c(O)c(C)c32)cc1 [Example 99] | > 100 | – | 100 to 500 | 100 to 500 | > 100 | –
